The source of these data is patent US20260274833A1 (NiKang Therapeutics, Inc., priority 2022, published 2026).

The target in the assay is T1, CDK2 (Homo sapiens, UniProt P24941).
T1 construct: endogenous in cells; host or cells: OVCAR3 cells
As to the kind of experiment: Phospho-RB measurement in OVCAR3 cells (HTRF phospho-RB cellular kit). As to conditions: inhibition of RB phosphorylation at S807/811 (HTRF, TR-FRET ratio 665/620), 24 h compound treatment, 0.3 to 10,000 nM. The format is cell-based. An outline of the steps: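 IC50 came from a four-parameter logistic fit of the DMSO-normalized TR-FRET ratio (665/620 nm). That ratio reflects RB phosphorylation at S807/811, read with an HTRF antibody pair 4 h after adding lysate at room temperature.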
(In general: Time-resolved FRET reads energy transfer from a long-lived donor to a nearby acceptor.)
The term IC50 denotes the midpoint of a concentration-inhibition curve. On to `CC(C)(C)c1nc(-c2cccc(NS(=O)(=O)N3CCc4ccc(S(C)(=O)=O)cc43)c2F)c(-c2ccnc(NC3CC4(C3)CS(=O)(=O)C4)n2)s1` [Example 261, N-(3-(2-(tert-butyl)-5-(2-((2,2-dioxido-2-thiaspiro[3.3]heptan-6-yl)amino)-pyrimidin-4-yl)thiazol-4-yl)-2-fluoro-phenyl)-6-(methylsulfonyl)-indoline-1-sulfonamide], for which the half-inhibitory concentration (IC50) was 694 nM. The same measure for `O=S1(=O)CC2(CC(Nc3nccc(-c4sc(C56CC(C5)C6)nc4-c4cccc(NS(=O)(=O)N5CCOCc6ccccc65)c4F)n3)C2)C1` [Example 273, N-(3-(2-(bicyclo [1.1.1]pentan-1-yl)-5-(2-((2,2-dioxido-2-thiaspiro[3.3]heptan-6-yl)amino)-pyrimidin-4-yl)thiazol-4-yl)-2-fluorophenyl)-2,3-dihydrobenzo-[e][1,4]oxazepine-1(5H)-sulfonamide]: 3280 nM; for `CC(C)(C)c1nc(-c2cccc(NS(=O)(=O)N3Cc4cccc(Oc5ccccc5C#N)c4C3)c2F)c(-c2ccnc(NC3CC4(C3)CS(=O)(=O)C4)n2)s1` [Example 219, N-(3-(2-(tert-butyl)-5-(2-((2,2-dioxido-2-thiaspiro[3.3]heptan-6-yl)amino)-pyrimidin-4-yl)thiazol-4-yl)-2-fluorophenyl)-4-(2-cyanophenoxy)-isoindoline-2-sulfonamide]: 583 nM.

In the case of `O=S1(=O)CC2(CC(Nc3nccc(-c4sc(N5C6CCC5CN(C5CC(F)(F)C5)C6)nc4-c4cccc(NS(=O)(=O)N5CCc6ccc(C(F)(F)F)cc65)c4F)n3)C2)C1` [Example 293, N-(3-(2-(3-(3,3-difluorocyclobutyl)-3,8-diazabicyclo[3.2.1]octan-8-yl)-5-(2-((2,2-dioxido-2-thiaspiro[3.3]heptan-6-yl)amino)pyrimidin-4-yl)thiazol-4-yl)-2-fluorophenyl)-6-(trifluoromethyl)-indoline-1-sulfonamide], the IC50 is 372 nM. For `CN1CC2CCC(C1)N2c1nc(-c2cccc(NS(=O)(=O)N3Cc4cccc(C(F)(F)F)c4C3)c2F)c(-c2ccnc(NC3CC4(C3)CS(=O)(=O)C4)n2)s1` [Example 32, N-(3-(5-(2-((2,2-dioxido-2-thiaspiro-[3.3]-heptan-6-yl)amino)pyrimidin-4-yl)-2-(3-methyl-3,8-diazabicyclo[3.2.1]-octan-8-yl)-thiazol-4-yl)-2-fluoro-phenyl)-4-(trifluoro-methyl)isoindoline-2-sulfonamide], the IC50 was 23.1 nM.

With `O=S1(=O)CC2(CC(Nc3nccc(-c4sc(C56CC(C5)C6)nc4-c4cccc(NS(=O)(=O)N5Cc6cccc(C(F)F)c6C5)c4F)n3)C2)C1` [Example 28, N-(3-(2-(bicyclo [1.1.1]pentan-1-yl)-5-(2-((2,2-dioxido-2-thiaspiro[3.3]heptan-6-yl)amino)-pyrimidin-4-yl)thiazol-4-yl)-2-fluorophenyl)-4-(difluoromethyl)-isoindoline-2-sulfonamide], the concentration for half-maximal inhibition (IC50) was found to be 71.9 nM.

For the compound `O=S1(=O)CC2(CC(Nc3nccc(-c4sc(C56CC(C5)C6)nc4-c4cccc(NS(=O)(=O)N5CC6CCC(CC6)C5)c4F)n3)C2)C1` [Example 270, (1s,5s)-N-(3-(2-(bicyclo[1.1.1]pentan-1-yl)-5-(2-((2,2-dioxido-2-thiaspiro[3.3]-heptan-6-yl)-amino)pyrimidin-4-yl)thiazol-4-yl)-2-fluorophenyl)-3-azabicyclo[3.2.2] nonane-3-sulfonamide], the IC50 was 3430 nM. With `CC(C)(C)c1nc(-c2cccc(NS(=O)(=O)N3CCc4ccccc4C3)c2F)c(-c2ccnc(NC3CCN(S(C)(=O)=O)CC3)n2)s1` [Example 74, N-(3-(2-(tert-butyl)-5-(2-((1-(methylsulfonyl)-piperidin-4-yl)amino)-pyrimidin-4-yl)thiazol-4-yl)-2-fluoro-phenyl)-3,4-dihydro-isoquinoline-2(1H)-sulfonamide], the half-maximal inhibitory concentration (IC50) is 180 nM. As to `O=S1(=O)CC2(CC(Nc3nccc(-c4sc(C56CC(C(F)(F)F)(C5)C6)nc4-c4cccc(NS(=O)(=O)N5CCc6ccccc65)c4F)n3)C2)C1` [Example 281], the half-maximal inhibitory concentration (IC50) is 739 nM. As for `CN(C)C(=O)c1ccc2c(c1)N(S(=O)(=O)Nc1cccc(-c3nc(C(C)(C)C)sc3-c3ccnc(NC4CCN(S(C)(=O)=O)CC4)n3)c1F)CC2` [Example 152, 1-(N-(3-(2-(tert-butyl)-5-(2-((1-(methyl-sulfonyl)piperidin-4-yl)amino)pyrimidin-4-yl)thiazol-4-yl)-2-fluorophenyl)-sulfamoyl)-N,N-dimethylindoline-6-carboxamide], the figure is 397 nM. Take `CC(C)(C)c1nc(-c2cccc(NS(=O)(=O)N3CCc4ncccc43)c2F)c(-c2ccnc(NC3CC4(C3)CS(=O)(=O)C4)n2)s1` [Example 190, N-(3-(2-(tert-butyl)-5-(2-((2,2-dioxido-2-thiaspiro[3.3]heptan-6-yl)amino)-pyrimidin-4-yl)thiazol-4-yl)-2-fluoro-phenyl)-2,3-dihydro-1H-pyrrolo[3,2-b]-pyridine-1-sulfonamide]: the half-maximal inhibitory concentration (IC50) was determined as 259 nM. As for `O=S1(=O)CC2(CC(Nc3nccc(-c4sc(C56CC(C5)C6)nc4-c4cccc(NS(=O)(=O)N5CCOc6ccccc6C5)c4F)n3)C2)C1` [Example 272, N-(3-(2-(bicyclo [1.1.1]pentan-1-yl)-5-(2-((2,2-dioxido-2-thiaspiro[3.3]heptan-6-yl)amino)-pyrimidin-4-yl)thiazol-4-yl)-2-fluorophenyl)-2,3-dihydrobenzo-[f][1,4]oxazepine-4(5H)-sulfonamide], the figure is 350 nM.

Regarding `CC(C)(C)c1nc(-c2cccc(NS(=O)(=O)N3Cc4ccc(C(F)F)cc4C3)c2F)c(-c2ccnc(NC3CCN(S(C)(=O)=O)CC3)n2)s1` [Example 254, N-(3-(2-(tert-butyl)-5-(2-((1+ (methylsulfonyl)-piperidin-4-yl)amino)-pyrimidin-4-yl)thiazol-4-yl)-2-fluoro-phenyl)-5-(difluoromethyl)-isoindoline-2-sulfonamide], the IC50 was 317 nM. For `C[C@@H]1Cc2ccccc2N1S(=O)(=O)Nc1cccc(-c2nc(C(C)(C)C)sc2-c2ccnc(NC3CCN(S(=O)(=O)N4CCNCC4)CC3)n2)c1F` [Example 140, (R)-N-(3-(2-(tert-butyl)-5-(2-((1-(piperazin-1-ylsulfonyl)piperidin-4-yl)amino)pyrimidin-4-yl)thiazol-4-yl)-2-fluorophenyl)-2-methyl-indoline-1-sulfonamide], the IC50 is 622 nM. The same measure for `CNc1cccc2c1CN(S(=O)(=O)Nc1cccc(-c3nc(C(C)(C)C)sc3-c3ccnc(NC4CC5(C4)CS(=O)(=O)C5)n3)c1F)C2` [Example 207, N-(3-(2-(tert-butyl)-5-(2-((2,2-dioxido-2-thiaspiro[3.3]heptan-6-yl)amino)-pyrimidin-4-yl)thiazol-4-yl)-2-fluorophenyl)-4-(methylamino)-isoindoline-2-sulfonamide]: 199 nM; for `CS(=O)(=O)[C@H]1CC[C@H](Nc2nccc(-c3sc(N4C5CCC4CN(CC(F)(F)F)C5)nc3-c3cccc(NS(=O)(=O)N4CCc5ccc(C(F)(F)F)cc54)c3F)n2)CC1` [Example 296, N-(2-fluoro-3-(5-(2-(((1r,4r)-4-(methylsulfonyl)cyclohexyl)amino)-pyrimidin-4-yl)-2-(3-(2,2,2-trifluoroethyl)-3,8-diazabicyclo[3.2.1]-octan-8-yl)thiazol-4-yl)phenyl)-6-(trifluoromethyl) indoline-1-sulfonamide]: 1190 nM; for `CC(C)(C)c1nc(-c2cccc(NS(=O)(=O)N3Cc4cccc(C5CCCCC5)c4C3)c2F)c(-c2ccnc(NC3CCN(S(C)(=O)=O)CC3)n2)s1` [Example 228, N-(3-(2-(tert-butyl)-5-(2-((1-(methylsulfonyl)-piperidin-4-yl)amino)-pyrimidin-4-yl)thiazol-4-yl)-2-fluoro-phenyl)-4-cyclohexyliso-indoline-2-sulfonamide]: 1510 nM. Take `CN(C)CCN(C)S(=O)(=O)N1CCC(Nc2nccc(-c3sc(C(C)(C)C)nc3-c3cccc(NS(=O)(=O)N4CCNc5ccccc5C4)c3F)n2)CC1` [Example 139, N-(3-(2-(tert-butyl)-5-(2-((1-(N-(2-(dimethyl-amino)ethyl)-N-methyl-sulfamoyl)piperidin-4-yl)amino)-pyrimidin-4-yl)thiazol-4-yl)-2-fluoro-phenyl)-1,2,3,5-tetrahydro-4H-benzo[e][1,4] diazepine-4-sulfonamide]: the IC50 stood at 291 nM. `CNC(=O)c1cccc2c1CN(S(=O)(=O)Nc1cccc(-c3nc(C(C)(C)C)sc3-c3ccnc(NC4CCN(S(C)(=O)=O)CC4)n3)c1F)C2` [Example 145, 2-(N-(3-(2-(tert-butyl)-5-(2-((1-(methyl-sulfonyl)piperidin-4-yl)amino)pyrimidin-4-yl)thiazol-4-yl)-2-fluorophenyl)-sulfamoyl)-N-methyliso-indoline-4-carboxamide]: the IC50 was found to be 389 nM. For `N#Cc1ccc2c(c1)N(S(=O)(=O)Nc1cccc(-c3nc(C45CC(C4)C5)sc3-c3ccnc(N[C@H]4C[C@@H]5CS(=O)(=O)C[C@@H]5C4)n3)c1F)CC2` [Example 59, N-(3-(2-(bicyclo [1.1.1]pentan-1-yl)-5-(2-(((3aR,5s,6aS)-2,2-dioxidohexahydro-1H-cyclopenta[c]thiophen-5-yl)amino)-pyrimidin-4-yl)thiazol-4-yl)-2-fluorophenyl)-6-cyanoindoline-1-sulfonamide], the IC50 was 53.3 nM. With `CC(C)(C)c1nc(-c2cccc(NS(=O)(=O)N3CCCc4ccccc4C3)c2F)c(-c2ccnc(NC3CCN(S(C)(=O)=O)CC3)n2)s1` [Example 80, N-(3-(2-(tert-butyl)-5-(2-((1-(methylsulfonyl)-piperidin-4-yl)amino)-pyrimidin-4-yl)thiazol-4-yl)-2-fluorophenyl)-1,3,4,5-tetrahydro-2H-benzo[c]azepine-2-sulfonamide], the IC50 came out at 172 nM.
